Here are results for 80 molecules from the METLIN SMRT retention time set (Domingo-Almenara et al. 2019).

The nature of the series: gradient 5% acetonitrile 3 min, to 50% in 2 min, to 85% in 15 min, held 3 min, 100 µL/min. The conditions noted are these: column: Zorbax Extend-C18 2.1 x 50 mm; eluents: water / acetonitrile, 0.1% formic acid. A digest of the protocol: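 Using water and acetonitrile that each contained 0.1% formic acid, mixtures of ~100 pure standards were separated at 100 μL/min on a Zorbax Extend-C18 column (2.1 × 50 mm, 1.8 μm). The HPLC fed a quadrupole time-of-flight mass spectrometer working in positive and negative ionization mode, with dead and dwell volumes of 40 μL and 900 μL. Data were acquired over 3 months. Retention time was read from computationally picked adduct peaks after manual inspection of each.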
In turn, `CCOc1ccc(NC(=O)N2CCC3(CC2)NC(=O)c2ccccc2N3C)cc1` came in with an RP-LC retention time of 781 s. For `Cc1cc2nc(C)c(=O)n(CC(=O)NCCc3c[nH]c4ccccc34)c2cc1C`, the RP-LC retention time turned out to be 814 s. Consider `Cc1cc(CN2CCC(CNC(=O)Cc3ccccc3Cl)CC2)c(C)o1`, for which the RP-LC retention time was found to be 583 s. As for `c1coc(-c2nnc(Nc3nc4cc5c(cc4s3)OCO5)o2)c1`, the figure is 694 s; as for `CS(=O)(=O)N1CCN(C(=O)Cc2csc(Nc3ncccn3)n2)CC1`, 601 s. `C=C[C@@]1(C)CC(=O)[C@]2(O)[C@@]3(C)[C@H](O)CCC(C)(C)[C@@H]3[C@H](O)[C@H](OC(C)=O)[C@@]2(C)O1` registered an RP-LC retention time of 1040 s.

Consider `Cc1nc2cccnc2n1-c1ccc(C(=O)NCCCN2CCCC2=O)cc1`, for which the RP-LC retention time turned out to be 580 s. In turn, `CCc1nnc2ccc(-c3noc(-c4cccc(F)c4)n3)cn12` returned an RP-LC retention time of 936 s. On to `COc1ccc(OCc2nc(-c3cccc(-c4ccn[nH]4)c3)no2)cc1`, for which the RP-LC retention time is 914 s.

The molecule `COCC(=O)N1CCN(C2CCN(CCC(C)C)C2=O)CC1` (stereo not given) yielded an RP-LC retention time of 535 s. `CNCc1ccc(-c2cc(Cl)cc(Cl)c2)o1` registered an RP-LC retention time of 658 s. Molecule `CCc1ccc(N2CC(c3noc(-c4ccc(OC)c(OC)c4)n3)CC2=O)cc1` (stereo not given) came in with an RP-LC retention time of 925 s. `COc1ccc2c(c1)C1(CCN(S(=O)(=O)c3ccc(F)cc3F)C1)C(=O)N2` (stereo not given) displayed an RP-LC retention time of 841 s. In turn, `CCCn1cc(C(=O)NCC(=O)OC)c(S(=O)(=O)N2CCN(c3ccccc3OCC)CC2)n1` registered an RP-LC retention time of 969 s. As for `Cc1cc(F)cc2c(=O)c3c([nH]c12)CCN(CC(=O)Nc1ccc2c(c1)OCO2)C3`, the figure is 615 s; as for `Cc1ccc(S(=O)(=O)N2CC3CN(C(=O)NCc4ccco4)CC(C2)O3)cc1`, 767 s; as for `COc1ccc(CC(=O)N2CCc3cc(-c4csc(C)n4)ccc32)cc1`, 1060 s. `Cc1ccc2c(C(=O)NCc3ccc(C)o3)cc(NC(=O)C3CCC3)cc2n1` had an RP-LC retention time of 618 s. The molecule `CCn1cnc2c(-c3ccccc3)cn(CC(=O)NCc3ccco3)c2c1=O` gave an RP-LC retention time of 796 s. In turn, `COC(=O)c1c(-c2ccc(Cl)cc2)noc1N1CCN(c2ccccn2)CC1` returned an RP-LC retention time of 1000 s. `NC(=O)CCC(C(=O)O)N1C(=O)C2C3CCC(C3)C2C1=O` (stereo not given) displayed an RP-LC retention time of 638 s. In turn, `CCn1cc(S(=O)(=O)N2CC(N(C)Cc3cccnc3)C2)cn1` displayed an RP-LC retention time of 565 s. As for `Cn1cc(-c2cc3n(n2)CCC(=O)N3CC(=O)NCc2ccccn2)c2ccccc21`, the figure is 626 s. `Cc1ccc(CNC(=O)C2(C)CCN(S(=O)(=O)c3ccccc3)CC2)cc1` registered an RP-LC retention time of 925 s. Molecule `O=C1NC2(CCN(C(=O)NCc3ccccc3)CC2)Nc2c(Cl)cccc21` yielded an RP-LC retention time of 724 s. The molecule `CCn1cc(C(=O)NCc2ccccc2C)c(S(=O)(=O)N2CCSCC2)n1` had an RP-LC retention time of 1120 s. As for `CCn1cnc2ccc(-c3noc(Cc4ccc(F)cc4)n3)cc21`, the figure is 742 s; as for `CCN1CCN(C(=O)CC(c2cc(OC)c(OC)c(OC)c2)N2Cc3ccccc3C2=O)CC1` (stereo not given), 613 s.

Regarding `CN(C)c1ccc(C(=O)NCCCCCCC(=O)NO)cc1`, the RP-LC retention time is 631 s.

Molecule `CCc1noc(NC(C)=O)c1-c1ccc(C)c(S(=O)(=O)Nc2cc(OC)ccc2OC)c1` registered an RP-LC retention time of 819 s.

As to `O=c1c2cc(Cl)ccc2oc2cc(O)cc(O)c12`, the RP-LC retention time was found to be 1000 s. As for `COc1cccc(-n2cc(C(=O)OCCc3ccccn3)c3ccccc3c2=O)c1`, the figure is 714 s; as for `CCC(C)N(CC(=O)N(Cc1ccco1)CC1CCCO1)C(=O)c1ccc(OC)cc1` (stereo not given), 808 s.

Regarding `CC(C)CCNC(=O)C1CC(=O)N(c2n[nH]c3cccc(F)c23)C1` (stereo not given), the RP-LC retention time is 699 s. `CCCn1cc(C(=O)NCc2cccnc2)c2cccnc21` came in with an RP-LC retention time of 580 s. On to `CCn1cc(-c2ccc(C)cc2)cc1C(=O)NCCOC`, for which the RP-LC retention time came to 919 s.

`Cc1ccc(CN2C[C@@H]3C(=O)N(CCc4ccccc4)C(=O)[C@@H]3C2)cc1`: the RP-LC retention time came out at 760 s.

Molecule `CCc1cccc(Nc2nc3ccncc3n(Cc3ccccc3)c2=O)c1` came in with an RP-LC retention time of 742 s. `COCCCNC(=O)C1CCN(c2nc3ccc(-c4ccccc4)nc3s2)CC1`: the RP-LC retention time is 835 s. In the case of `CCOc1cc(=O)n2c(c1C(=O)OCc1cccc(F)c1)CCCC2`, the RP-LC retention time was determined as 900 s. In turn, `CCc1nc2cc(N3CCCC(C(=O)NC4CC4)C3)cnc2nc1CC` (stereo not given) returned an RP-LC retention time of 696 s. In the case of `O=S(=O)(c1cccn2c(SCc3ccccc3Cl)nnc12)N1CCCCC1`, the RP-LC retention time was 927 s.

Molecule `O=S(=O)(c1ccccc1)N1CC(n2cnnc2-c2ccccc2)C1` gave an RP-LC retention time of 641 s. As for `Cc1nnc(-c2nnc(NCc3ccc(Cl)cc3)c3ccccc23)o1`, the figure is 886 s.

Molecule `COc1ccc(-c2ccc(N3CCCC(C(=O)NCc4cccs4)C3)nn2)cc1` (stereo not given) came in with an RP-LC retention time of 613 s. Turning to `CCN1C(=O)c2cccnc2Sc2cc(NC(=O)COc3ccc(F)cc3)ccc21`, the RP-LC retention time is 872 s. The molecule `CCc1ccc(NC(=O)Cn2c(C(C)C)nc3cc4c(cc32)OCCO4)cc1` gave an RP-LC retention time of 742 s.

`O=C(CN1CC=C(c2cnn(-c3ccccc3)c2)CC1)Nc1ccccc1Cl` displayed an RP-LC retention time of 690 s. For the molecule `Cc1cccc(-c2nnc(SCc3cc(=O)n4nc(C)sc4n3)o2)c1`, the RP-LC retention time worked out at 782 s.

Consider `CC1CCN(S(=O)(=O)c2ccc(C(=O)Nc3nc4c(s3)Cc3ccccc3-4)cc2)CC1`, for which the RP-LC retention time is 1230 s. `COC(=O)c1ccc(NC(=O)NCc2noc3ccc(C)cc23)cc1` registered an RP-LC retention time of 868 s. For `CCOc1ccc(CCNC(=O)c2cc3sccc3n2CC)cc1OCC`, the RP-LC retention time was found to be 1050 s.

For `CC(C)Cc1noc(C2(F)CCN(S(=O)(=O)c3ccccc3Cl)CC2)n1`, the RP-LC retention time was 674 s. `Cc1nc(-n2cccc2)sc1C(=O)Nc1ccc(-c2cn3c(n2)SCC3)cc1` displayed an RP-LC retention time of 627 s.

As to `CCn1c(C(=O)NCc2ccc(N(C)C)cc2)cc2c(-c3cccs3)nn(-c3ccccc3)c21`, the RP-LC retention time stood at 906 s. Molecule `CCCc1ccc(S(=O)(=O)N2CCc3c(c(-c4nnc(SCC)n4CC)nn3C)C2)cc1` yielded an RP-LC retention time of 1090 s. Molecule `CN(C)S(=O)(=O)N1CCCC1Cc1noc(-c2cccnc2)n1` (stereo not given) came in with an RP-LC retention time of 746 s. As for `O=C(Cc1cccc(F)c1)Nc1nnc(C2CC(=O)N(c3ccc(F)cc3)C2)o1` (stereo not given), the figure is 726 s; as for `Cc1ccc(C2Cn3nnc(-c4nc(-c5cccc(F)c5)no4)c3CO2)c(C)c1` (stereo not given), 1300 s; as for `O=C1CCN(C(=O)c2cccs2)CCOCCN1`, 585 s. As for `CCCn1cc(CCNS(=O)(=O)CC)c2cccnc21`, the figure is 661 s; as for `COc1ccccc1-c1noc(CCn2nc(-c3ccc4c(c3)OCO4)ccc2=O)n1`, 802 s; as for `CC1(C)O[C@@H]2C[C@H]3[C@@H]4C[C@H](F)C5=CC(=O)C=C[C@]5(C)[C@@]4(F)[C@@H](O)C[C@]3(C)[C@]2(C(=O)CO)O1`, 921 s. As for `COc1ccc(OC)c(NC(=O)N2CCc3cn(C)c4cccc(c34)C2)c1`, the figure is 943 s. `Cc1nc(N2CCN(c3ccccn3)CC2)nc2c1C(=O)CC(c1ccccc1F)C2` (stereo not given) showed an RP-LC retention time of 735 s. For the molecule `CS(=O)(=O)Oc1ccc(Br)c2cccnc12`, the RP-LC retention time is 889 s. As for `CCN1CCC(N(Cc2cccs2)C(=O)Nc2ccc(C)cc2)CC1`, the figure is 667 s; as for `COC(=O)COc1cc(-c2cccc(Cl)c2)nc2ccc(NC(=O)c3ccco3)cc12`, 886 s. As for `Cc1cc(C)cc(-c2nnc(Cc3nc(-c4ccccc4C)no3)o2)c1`, the figure is 1200 s; as for `CC(C)CNC(=O)c1nc(-c2ccnc(N3CCC(C)CC3)c2)no1`, 814 s; as for `CCCn1cc(CCNC(=O)c2ccc(C)cc2C)c2cccnc21`, 799 s. The molecule `CC(C)c1cc(C(=O)NCc2ccco2)nc2cc(-c3ccccn3)nn12` showed an RP-LC retention time of 629 s.

In the case of `CC(C)n1c(=O)oc2cc(-c3noc(-c4cc(F)ccc4F)n3)ccc21`, the RP-LC retention time was determined as 1130 s. As for `Brc1ccc(CSc2nnc(-c3ccccc3)o2)cc1`, the RP-LC retention time was found to be 1180 s. `Clc1ccc(-c2csc(N3CCOCC3)n2)c(Cl)c1` gave an RP-LC retention time of 1260 s. `O=C(Nc1cccc(-c2nnc3n2CCCC3)c1)c1ccsc1` showed an RP-LC retention time of 659 s. The molecule `Cc1nn2c(N3CCN(c4ccccn4)CC3)cc(C(C)C)nc2c1-c1ccccc1` returned an RP-LC retention time of 823 s.

`COc1ccc(C2(C(=O)N3CCC4(CC3)C(OC)CN4c3cccc(F)c3)CC2)cc1` (stereo not given) registered an RP-LC retention time of 1090 s. As for `CN(C)CCNC(=O)c1ccc(CS(=O)c2ccc(Cl)cc2)o1` (stereo not given), the figure is 591 s; as for `CC(C(=O)NCCN(C)Cc1ccccc1)n1c(=O)c(C(F)(F)F)nc2ccccc21` (stereo not given), 735 s.
